In test [1] the test system is Rhizoctonia solani. Nature of the test: Antifungal activity against Rhizoctonia solani infected compound-pre-treated rice seedlings at 300 ppm incubated for 2 days prior to infection measured after 4 days relative to diclomezine. It counts as functional.
In test [2] the test system is Podosphaera fuliginea. Nature of the test: Antifungal activity against Podosphaera fuliginea infected compound-pre-treated cucumber seedlings at 300 ppm incubated for 2 days prior to infection measured after 4 days relative to buthiobate. It counts as functional.

For the compound `C[Si](C)(C)CC(C#N)(Cn1cncn1)c1ccc(Cl)cc1Cl` (centres undefined), the Activity_index in test [1] and in test [2] was 2 each time.

As for `C[Si](C)(C)CC(C#N)(Cn1cncn1)c1ccc(Cl)c(Cl)c1` (centres undefined), the Activity_index in test [1] amounted to 0; in test [2], 2.

With `C[Si](C)(CC(C#N)(Cn1cncn1)c1ccc(Cl)cc1)c1ccccc1` (centres undefined), the Activity_index is on record as 0 in test [1] and 2 in test [2].

With `C[Si](C)(CC(C#N)(Cn1cncn1)c1ccccc1)c1ccccc1` (centres undefined), the Activity_index in test [1] came out at 0; in test [2] it was 2.

On to `C[Si](C)(CC(C#N)(Cn1cncn1)c1cccc(Oc2ccccc2)c1)c1ccccc1` (centres undefined), for which the Activity_index in test [1] and in test [2] was 0 throughout.

As to `C[Si](C)(C)CC(C#N)(Cn1cncn1)c1ccc(F)cc1` (centres undefined), the values for the Activity_index in test [1] and in test [2] were 2 and 0, respectively.

`C[Si](C)(C)CC(C#N)(Cn1cncn1)c1ccc(Cl)cc1` (centres undefined): the values for the Activity_index in test [1] and in test [2] were 2 and 0, respectively.

As for `C[Si](C)(C)CC(C#N)(Cn1cncn1)c1ccccc1` (centres undefined), the Activity_index in test [1] and in test [2] was 2 throughout.

Take `COc1ccc(C(C#N)(Cn2cncn2)C[Si](C)(C)C)cc1` (centres undefined): the Activity_index in test [1] and in test [2] was 2 throughout.

Regarding `Cc1ccc(C(C#N)(Cn2cncn2)C[Si](C)(C)C)cc1` (centres undefined), the Activity_index in test [1] is given as 0; in test [2], 2.

On to `C[Si](C)(C)CC(C#N)(Cn1cncn1)c1ccccc1Cl` (centres undefined), for which the Activity_index amounted to 2 in test [1] and 0 in test [2].

`C[Si](C)(C)CC(C#N)(Cn1cncn1)c1cccc(Cl)c1` (centres undefined): the Activity_index in test [1] was determined as 0; in test [2], 2.

Values taken from ChEMBL document CHEMBL3044581, “Synthesis and fungicidal activities of silicon-containing derivatives of 2-aryl-3-(1H-1,2,4-triazol-1-yl)propanenitriles” (2001).
